Values of other authors in publication doi:10.1101/2025.09.24.678446, “Exploiting Peptide Chirality and Transport to Dissect the Complex Mechanism of Action of Host Peptides on Bacteria” (bioRxiv, 2025).

Test system: BacA

## bleomycin
  transport by BacA: BacA has previously been shown to transport many varieties of peptides, including bleomycin
